Experimental data taken from the NIST ThermoML archive (doi:10.1021/je200811n).
± gives the expanded uncertainty stated by the source.

Details: Hot wire method

F/C=C/C(F)(F)F [trans-1,3,3,3-tetrafluoropropene]
thermal conductivity (322.82 K, 587 kPa, Gas): 0.01562 ± 0.00053 W/m/K | thermal conductivity (322.86 K, 21602 kPa, Liquid): 0.08015 ± 0.00088 W/m/K | thermal conductivity (322.89 K, 858 kPa, Gas): 0.01585 ± 0.00053 W/m/K | thermal conductivity (322.9 K, 15321 kPa, Liquid): 0.07653 ± 0.00085 W/m/K | thermal conductivity (322.91 K, 884 kPa, Gas): 0.01588 ± 0.00053 W/m/K | thermal conductivity (322.91 K, 5442 kPa, Liquid): 0.06937 ± 0.00078 W/m/K | thermal conductivity (322.93 K, 431 kPa, Gas): 0.01557 ± 0.00052 W/m/K | thermal conductivity (322.94 K, 5376 kPa, Liquid): 0.06973 ± 0.00078 W/m/K | thermal conductivity (322.99 K, 96 kPa, Gas): 0.01599 ± 0.00054 W/m/K | thermal conductivity (323 K, 710 kPa, Gas): 0.01574 ± 0.00053 W/m/K | thermal conductivity (323.07 K, 301 kPa, Gas): 0.01559 ± 0.00052 W/m/K | thermal conductivity (323.15 K, Liquid): 0.06606 ± 0.00047 W/m/K | thermal conductivity (323.18 K, 586 kPa, Gas): 0.01563 ± 0.00053 W/m/K | thermal conductivity (323.19 K, 193 kPa, Gas): 0.01574 ± 0.00053 W/m/K | thermal conductivity (323.23 K, 856 kPa, Gas): 0.01588 ± 0.00053 W/m/K | thermal conductivity (323.26 K, 882 kPa, Gas): 0.01587 ± 0.00053 W/m/K | thermal conductivity (323.3 K, 430 kPa, Gas): 0.01563 ± 0.00053 W/m/K | thermal conductivity (323.36 K, 707 kPa, Gas): 0.01574 ± 0.00053 W/m/K | thermal conductivity (323.41 K, 96 kPa, Gas): 0.0162 ± 0.00054 W/m/K | thermal conductivity (323.46 K, 301 kPa, Gas): 0.01566 ± 0.00053 W/m/K | thermal conductivity (323.55 K, 585 kPa, Gas): 0.01566 ± 0.00053 W/m/K | thermal conductivity (323.61 K, 193 kPa, Gas): 0.01581 ± 0.00053 W/m/K | thermal conductivity (323.71 K, 429 kPa, Gas): 0.01566 ± 0.00053 W/m/K | thermal conductivity (323.86 K, 96 kPa, Gas): 0.01599 ± 0.00054 W/m/K | thermal conductivity (323.88 K, 301 kPa, Gas): 0.01569 ± 0.00053 W/m/K | thermal conductivity (324.05 K, 193 kPa, Gas): 0.01583 ± 0.00053 W/m/K | thermal conductivity (324.33 K, 96 kPa, Gas): 0.01609 ± 0.00054 W/m/K | thermal conductivity (331.18 K, 96 kPa, Gas): 0.01637 ± 0.00055 W/m/K | thermal conductivity (331.19 K, 198 kPa, Gas): 0.01658 ± 0.00056 W/m/K | thermal conductivity (331.21 K, 298 kPa, Gas): 0.01665 ± 0.00056 W/m/K | thermal conductivity (331.4 K, 96 kPa, Gas): 0.0162 ± 0.0005 W/m/K | thermal conductivity (331.42 K, 198 kPa, Gas): 0.01638 ± 0.00055 W/m/K | thermal conductivity (331.43 K, 298 kPa, Gas): 0.01653 ± 0.00055 W/m/K | thermal conductivity (331.64 K, 96 kPa, Gas): 0.01611 ± 0.00054 W/m/K | thermal conductivity (331.65 K, 197 kPa, Gas): 0.01629 ± 0.00055 W/m/K | thermal conductivity (331.67 K, 298 kPa, Gas): 0.0164 ± 0.0006 W/m/K | thermal conductivity (331.9 K, 96 kPa, Gas): 0.01602 ± 0.00054 W/m/K | thermal conductivity (331.9 K, 298 kPa, Gas): 0.01635 ± 0.00055 W/m/K | thermal conductivity (331.91 K, 197 kPa, Gas): 0.01618 ± 0.00054 W/m/K | thermal conductivity (332.16 K, 298 kPa, Gas): 0.01629 ± 0.00055 W/m/K | thermal conductivity (332.17 K, 198 kPa, Gas): 0.01612 ± 0.00054 W/m/K | thermal conductivity (332.17 K, 1166 kPa, Gas): 0.01695 ± 0.0003 W/m/K | thermal conductivity (332.18 K, 1084 kPa, Gas): 0.01688 ± 0.0003 W/m/K | thermal conductivity (332.3 K, 442 kPa, Gas): 0.01671 ± 0.00056 W/m/K | thermal conductivity (332.33 K, 813 kPa, Gas): 0.0168 ± 0.00056 W/m/K | thermal conductivity (332.38 K, 585 kPa, Gas): 0.01673 ± 0.00056 W/m/K | thermal conductivity (332.42 K, 298 kPa, Gas): 0.01634 ± 0.00055 W/m/K | thermal conductivity (332.43 K, 600 kPa, Gas): 0.0167 ± 0.00056 W/m/K | thermal conductivity (332.46 K, 434 kPa, Gas): 0.01674 ± 0.00056 W/m/K | thermal conductivity (332.46 K, 1166 kPa, Gas): 0.01705 ± 0.00031 W/m/K | thermal conductivity (332.47 K, 1082 kPa, Gas): 0.01688 ± 0.0003 W/m/K | thermal conductivity (332.52 K, 198 kPa, Gas): 0.0166 ± 0.00056 W/m/K | thermal conductivity (332.63 K, 813 kPa, Gas): 0.01684 ± 0.00056 W/m/K | thermal conductivity (332.65 K, 442 kPa, Gas): 0.01674 ± 0.00056 W/m/K | thermal conductivity (332.7 K, 96 kPa, Gas): 0.01695 ± 0.00057 W/m/K | thermal conductivity (332.71 K, 584 kPa, Gas): 0.0167 ± 0.00056 W/m/K | thermal conductivity (332.75 K, 598 kPa, Gas): 0.01664 ± 0.00056 W/m/K | thermal conductivity (332.76 K, 1166 kPa, Gas): 0.01708 ± 0.00031 W/m/K | thermal conductivity (332.79 K, 1079 kPa, Gas): 0.01686 ± 0.0003 W/m/K | thermal conductivity (332.8 K, 434 kPa, Gas): 0.01674 ± 0.00056 W/m/K | thermal conductivity (332.9 K, 198 kPa, Gas): 0.01664 ± 0.00056 W/m/K | thermal conductivity (332.91 K, 871 kPa, Gas): 0.01664 ± 0.00056 W/m/K | thermal conductivity (332.97 K, 813 kPa, Gas): 0.01681 ± 0.00056 W/m/K | thermal conductivity (333.01 K, 444 kPa, Gas): 0.01648 ± 0.00055 W/m/K | thermal conductivity (333.08 K, 1166 kPa, Gas): 0.01705 ± 0.00031 W/m/K | thermal conductivity (333.11 K, 1077 kPa, Gas): 0.0169 ± 0.0003 W/m/K | thermal conductivity (333.13 K, 96 kPa, Gas): 0.017 ± 0.00057 W/m/K | thermal conductivity (333.15 K, Liquid): 0.06293 ± 0.00045 W/m/K | thermal conductivity (333.26 K, 868 kPa, Gas): 0.01661 ± 0.00056 W/m/K | thermal conductivity (333.31 K, 198 kPa, Gas): 0.01672 ± 0.00056 W/m/K | thermal conductivity (333.42 K, 1165 kPa, Gas): 0.01702 ± 0.0003 W/m/K | thermal conductivity (333.46 K, 1075 kPa, Gas): 0.01692 ± 0.0003 W/m/K | thermal conductivity (333.56 K, 96 kPa, Gas): 0.01706 ± 0.00057 W/m/K | thermal conductivity (333.6 K, 298 kPa, Gas): 0.01659 ± 0.00056 W/m/K | thermal conductivity (333.74 K, 197 kPa, Gas): 0.01673 ± 0.00056 W/m/K | thermal conductivity (333.82 K, 441 kPa, Gas): 0.01653 ± 0.00055 W/m/K | thermal conductivity (333.98 K, 435 kPa, Gas): 0.01662 ± 0.00056 W/m/K | thermal conductivity (334.02 K, 96 kPa, Gas): 0.01704 ± 0.00057 W/m/K | thermal conductivity (334.02 K, 298 kPa, Gas): 0.01661 ± 0.00056 W/m/K | thermal conductivity (334.19 K, 197 kPa, Gas): 0.01672 ± 0.00056 W/m/K | thermal conductivity (334.51 K, 96 kPa, Gas): 0.01712 ± 0.00057 W/m/K | thermal conductivity (340.58 K, 3036 kPa, Liquid): 0.06257 ± 0.0007 W/m/K | thermal conductivity (340.6 K, 1565 kPa, Liquid): 0.06077 ± 0.00069 W/m/K | thermal conductivity (340.63 K, 3034 kPa, Liquid): 0.06242 ± 0.0007 W/m/K | thermal conductivity (340.65 K, 1563 kPa, Liquid): 0.06068 ± 0.00068 W/m/K | thermal conductivity (340.7 K, 96 kPa, Gas): 0.01742 ± 0.00058 W/m/K | thermal conductivity (340.73 K, 194 kPa, Gas): 0.01765 ± 0.00059 W/m/K | thermal conductivity (340.73 K, 5177 kPa, Liquid): 0.06477 ± 0.00073 W/m/K | thermal conductivity (340.75 K, 8139 kPa, Liquid): 0.06735 ± 0.00075 W/m/K | thermal conductivity (340.75 K, 8199 kPa, Liquid): 0.06725 ± 0.00075 W/m/K | thermal conductivity (340.78 K, 5176 kPa, Liquid): 0.06447 ± 0.00072 W/m/K | thermal conductivity (340.8 K, 8202 kPa, Liquid): 0.06713 ± 0.00075 W/m/K | thermal conductivity (340.82 K, 3032 kPa, Liquid): 0.06247 ± 0.00071 W/m/K | thermal conductivity (340.86 K, 1561 kPa, Liquid): 0.06064 ± 0.00069 W/m/K | thermal conductivity (340.88 K, 3031 kPa, Liquid): 0.06222 ± 0.0007 W/m/K | thermal conductivity (340.92 K, 97 kPa, Gas): 0.01718 ± 0.00057 W/m/K | thermal conductivity (340.92 K, 1560 kPa, Liquid): 0.06043 ± 0.00068 W/m/K | thermal conductivity (340.94 K, 194 kPa, Gas): 0.0174 ± 0.0006 W/m/K | thermal conductivity (341.03 K, 8138 kPa, Liquid): 0.06739 ± 0.00075 W/m/K | thermal conductivity (341.04 K, 20095 kPa, Liquid): 0.07528 ± 0.00083 W/m/K | thermal conductivity (341.06 K, 16393 kPa, Liquid): 0.07294 ± 0.00081 W/m/K | thermal conductivity (341.07 K, 5175 kPa, Liquid): 0.06447 ± 0.00073 W/m/K | thermal conductivity (341.08 K, 8204 kPa, Liquid): 0.06709 ± 0.00076 W/m/K | thermal conductivity (341.09 K, 3029 kPa, Liquid): 0.06217 ± 0.0007 W/m/K | thermal conductivity (341.09 K, 21968 kPa, Liquid): 0.07668 ± 0.00085 W/m/K | thermal conductivity (341.1 K, 8133 kPa, Liquid): 0.06713 ± 0.00075 W/m/K | thermal conductivity (341.1 K, 12136 kPa, Liquid): 0.07037 ± 0.00078 W/m/K | thermal conductivity (341.1 K, 20086 kPa, Liquid): 0.07523 ± 0.00083 W/m/K | thermal conductivity (341.12 K, 16392 kPa, Liquid): 0.07302 ± 0.00081 W/m/K | thermal conductivity (341.13 K, 1563 kPa, Liquid): 0.06043 ± 0.00068 W/m/K | thermal conductivity (341.14 K, 96 kPa, Gas): 0.01698 ± 0.00057 W/m/K | thermal conductivity (341.15 K, 5174 kPa, Liquid): 0.06431 ± 0.00072 W/m/K | thermal conductivity (341.15 K, 21974 kPa, Liquid): 0.07662 ± 0.00085 W/m/K | thermal conductivity (341.16 K, 194 kPa, Gas): 0.01722 ± 0.00058 W/m/K
